# Source: the NIST ThermoML archive (doi:10.1016/j.jct.2014.11.014)
# Numbers after ± are expanded uncertainties.
# Assay: osmotic coefficient (dimensionless); mn = molality of the nth substance listed, in mol/kg
# Conditions: 298.15 K, 100 kPa, Liquid, isopiestic method
osmotic coefficient (m1 = 0.6482),osmotic coefficient (m1 = 1.344),osmotic coefficient (m1 = 1.706),osmotic coefficient (m1 = 1.869),osmotic coefficient (m1 = 1.921),osmotic coefficient (m1 = 2.034),osmotic coefficient (m1 = 2.247),osmotic coefficient (m1 = 1.014),osmotic coefficient (m1 = 2.276),osmotic coefficient (m1 = 2.931),osmotic coefficient (m1 = 3.121),osmotic coefficient (m1 = 3.201),osmotic coefficient (m1 = 3.445),osmotic coefficient (m1 = 3.639),Compound
0.771 ± 0.013,0.742 ± 0.014,0.734 ± 0.014,0.731 ± 0.014,0.726 ± 0.014,0.729 ± 0.014,0.719 ± 0.014,,,,,,,,CCCCn1cc[n+](C)c1.[Br-] [1-butyl-3-methylimidazolium bromide] + O
,,,,,,,0.986 ± 0.01,0.876 ± 0.011,0.855 ± 0.011,0.875 ± 0.011,0.872 ± 0.011,0.861 ± 0.011,0.889 ± 0.011,N[C@@H](CO)C(=O)O [L-serine] + O
